Test results as given in BindingDB's records for doi:10.1021/jm00168a028 (University of Minnesota, 1990).
Where a SMILES comes first, the peptide text is derived from it. [ ]: non-standard residue; d: D form. The star is where a group is joined. Tyr(Nα,Nα-allyl2) = C=CCN(CC=C)[C@@H](Cc1ccc(O)cc1)C(=O)*; Aib = CC(C)(N)C(=O)O

Tests used:
[1] = Binding affinity was measured by the displacement of [3H]- DADLE in guinea pig brain membrane of Opioid receptor delta 1
[2] = Binding affinity was measured by the displacement of [3H]- DADLE in guinea pig brain membrane of opioid receptor delta
[3] = Binding affinity was measured by the displacement of [3H]- DADLE in guinea pig brain membrane of Opioid receptor delta 1; remark: listed apart in the source

Compound | Ki [1] [nM] | Ki [2] [nM] | Ki [3] [nM]
CN1CC[C@]23c4c5ccc(O)c4O[C@H]2c2[nH]c4ccccc4c2C[C@@]3(O)[C@H]1C5 | 0.7 | – | –
COc1ccc2c3c1O[C@H]1c4[nH]c5ccccc5c4C[C@@]4(O)[C@@H](C2)N(CC2CC2)CC[C@]314 [22-cyclopropylmethyl-16-methoxy-(2S,13R)-14-oxa-11,22-diazaheptacyclo[13.9.1.01,13.02,21.04,12.05,10.019,25]pentacosa-4(12),5(10),6,8,15(25),16,18-heptaen-2-ol(HCl1.5H2O)] | 40 | 40 | –
C=CCN(CC=C)[C@@H](Cc1ccc(O)cc1)C(=O)NC(C)(C)C(=O)NC(C)(C)C(=O)N[C@@H](Cc1ccccc1)C(=O)N[C@@H](CC(C)C)C(=O)O [ICI-174864] ({Tyr(Nα,Nα-allyl2)}-[Aib][Aib]FL-OH) | – | – | 35
